Test results reported in patent US11952334B2, “Cocrystals of ubiquinone and compositions comprising them” (CENTER FOR INTELLIGENT RESEARCH IN CRYSTAL ENGINEERING, S.L., priority 2018, dated 2024).

Key:
[1] = Dissolution rate of ubiquinone vs cocrystals in FaSSIF-v2 medium (small-scale dissolution assay); assay type: physicochemical; details: for Dissolution rate: tablet 8 mm, exposed surface 0.5 cm^2, FaSSIF-v2 medium pH 6.50, 25° C., Noyes-Whitney fit; for Dissolution rate compared with ubiquinone (in words): FaSSIF-v2 medium pH 6.50, 25° C.
Protocol: 1. Dissolution Rate Experiments • Tablet production: tablets of 8 mm diameter were made using a manual hydraulic tablet press (Applied Measurements Ltd, UK) up to a compression weight of 70 Kg. 40-50 mg of compound, ubiquinone or co-crystal, were weighted. The total exposed surface area was 0.5 cm^2. • Medium: aqueous solution containing 106 mM sodium chloride, 28.4 mM monobasic sodium phosphate, and 8.7 mM sodium hydroxide, adjusted with sodium hydroxide to pH 6.50. • Dissolution tests were performed with a small-scale dissolution assay installed in a GlpKa™ titrator (Sirius Analytical Instruments, UK). • Dissolution time and temperature: 2 hours and 25° C. • Procedure: 15 mL of aqueous medium was added into the sample vial containing the tablet. Spectra were recorded every 30 seconds for 1 hour through Sirius D-PAS spectrometer, with a bifurcated optic fibre dip probe (Hellma Analytics). The medium was stirred at a constant rate.
2. HPLC-MS/MS Quantification • HPLC conditions: • Instrument: Agilent HPLC, consisting on two pumps, oven, and an autoinjector. • Column: Teknokroma C8, 150×4.6 mm, 5 μm. • Mobile phase: 5 mM ammonium formate in methanol:isopropanol (90:10). • Elution mode: isocratic. • Column temperature: 35° C. • Flow rate: 1 mL/min. • Injection volume: […]. • Retention time of ubiquinone: 8.5 min. • MS conditions: • Instrument: Linear Ion Trap Quadrupole LC/MS/MS Mass Spectrometer 6500 Q TRAP (AB SCIEX Instruments). • Curtain Gas: 25 p.s.i. • Source temperature: 400° C. • Ion Source Gas 1: 50 p.s.i. • Ion Source Gas 2: 50 p.s.i. • Ion Spray Voltage: 5500 V. • Mode: positive ionization. • Scan mode: MRM. • Transitions for ubiquinone: • Quantification: 880.8 (Q1)—197.1 (Q3); DP=100, CE=25; Dwell time=1000 ms • Confirmation: 880.8 (Q1)—149.3 (Q3); DP=90, CE=45; Dwell time=1000 ms.
Dissolution rates of the cocrystals were determined by monitoring the dissolution profile of the different coformers. Molar extinction coefficients (MEC) of the coformers were measured in water, assuming that they would be nearly identical in FaSSIF aqueous solution.
Dissolution rate of ubiquinone was determined spectrophotometrically. However, as MEC of ubiquinone couldn't be determined in water due to the low solubility of the compound in this medium, concentration of ubiquinone in the dissolution profile was determined by HPLC-MS/MS.
Noyes-Whitney first order exponential equation was fitted to experimental points, providing the dissolution rate values shown in Table 11 below.

[2] = Particle size analysis (granulometry) by laser dispersion; assay type: physicochemical; details: dispersing fluid silicone oil
Protocol: Particle size can be determined, for example by laser dispersion on a Beckman Coulter LS13320 provided with a MLM (Micro Liquid Module) (measure range: 0.4 to 2000 μm; optic model: Fraunhofer.rdf, PIDS included).
Particle size analysis (granulometry) was performed by laser dispersion on a Beckman Coulter LS13320 provided with a MLM (Micro Liquid Module) (measure range: 0.4 to 2000 μm; optic model: Fraunhofer.rdf, PIDS included).
In a beaker about 10 ml of silicone oil and a microspoon of sample were placed. The sample was homogeneized by pipetting it repeatedly with a pasteurized pipette and by subjecting it to ultrasonic treatment (30 KHz; 200 W). The module was cleaned and filled with silicone oil as a dispersing fluid. Before each analysis, an optical alignment of the laser and a measure of the instrument noise was made.

Compound	Dissolution rate [1] [µg/min]	D10 [2] [μm]	D50 [2] [μm]	D90 [2] [μm]	Mean particle size [2] [μm]	Mode particle size [2] [μm]	Percentage of particles between 9.82 μm and 57.8 μm [2] [%]	Dissolution rate compared with ubiquinone (in words) [1]
COC1=C(OC)C(=O)C(C/C=C(\C)CC/C=C(\C)CC/C=C(\C)CC/C=C(\C)CC/C=C(\C)CC/C=C(\C)CC/C=C(\C)CC/C=C(\C)CC/C=C(\C)CCC=C(C)C)=C(C)C1=O [Compound P57, ubiquinone]	0.0012 ± 0.0007	5.19	28.4	41.7	26.0	38.0	83.1	–
COC1=C(OC)C(=O)C(C/C=C(\C)CC/C=C(\C)CC/C=C(\C)CC/C=C(\C)CC/C=C(\C)CC/C=C(\C)CC/C=C(\C)CC/C=C(\C)CC/C=C(\C)CCC=C(C)C)=C(C)C1=O.O=C(O)c1ccc(O)cc1 [Compound P57-III, Ubiquinone:4-hydroxybenzoic acid cocrystal (1:1)]	56 ± 8	2.51	18.2	36.1	19.0	34.6	70.5	highest dissolution rate
COC1=C(OC)C(=O)C(C/C=C(\C)CC/C=C(\C)CC/C=C(\C)CC/C=C(\C)CC/C=C(\C)CC/C=C(\C)CC/C=C(\C)CC/C=C(\C)CC/C=C(\C)CCC=C(C)C)=C(C)C1=O.COC1=C(OC)C(=O)C(C/C=C(\C)CC/C=C(\C)CC/C=C(\C)CC/C=C(\C)CC/C=C(\C)CC/C=C(\C)CC/C=C(\C)CC/C=C(\C)CC/C=C(\C)CCC=C(C)C)=C(C)C1=O.Oc1ccc(O)cc1 [Compound P57-VI, Ubiquinone:hydroquinone (2:1)]	–	1.69	17.0	34.6	17.2	31.5	58.3	–
COC1=C(OC)C(=O)C(C/C=C(\C)CC/C=C(\C)CC/C=C(\C)CC/C=C(\C)CC/C=C(\C)CC/C=C(\C)CC/C=C(\C)CC/C=C(\C)CC/C=C(\C)CCC=C(C)C)=C(C)C1=O.COC1=C(OC)C(=O)C(C/C=C(\C)CC/C=C(\C)CC/C=C(\C)CC/C=C(\C)CC/C=C(\C)CC/C=C(\C)CC/C=C(\C)CC/C=C(\C)CC/C=C(\C)CCC=C(C)C)=C(C)C1=O.Cc1cc(O)cc(O)c1.Cc1cc(O)cc(O)c1.Cc1cc(O)cc(O)c1 [Compound P57-VII, Ubiquinone:orcinol cocrystal (2:3)]	106 ± 23	2.09	23.5	35.5	20.9	31.5	75.5	highest dissolution rate
COC1=C(OC)C(=O)C(C/C=C(\C)CC/C=C(\C)CC/C=C(\C)CC/C=C(\C)CC/C=C(\C)CC/C=C(\C)CC/C=C(\C)CC/C=C(\C)CC/C=C(\C)CCC=C(C)C)=C(C)C1=O.COC1=C(OC)C(=O)C(C/C=C(\C)CC/C=C(\C)CC/C=C(\C)CC/C=C(\C)CC/C=C(\C)CC/C=C(\C)CC/C=C(\C)CC/C=C(\C)CC/C=C(\C)CCC=C(C)C)=C(C)C1=O.O.Oc1cc(O)cc(O)c1 [Compound P57-VIII, Ubiquinone:phloroglucinol monohydrate cocrystal (2:1:1)]	3.5 ± 0.4	9.46	22.2	34.0	22.0	31.5	88.9	–
Ubiquinone:resorcinol cocrystal (2:1) [Compound P57-V]	5.7 ± 0.8	–	–	–	14.5	31.5	52.9	–
